Measurements as given in patent publication US7339065B2, “Design and synthesis of optimized ligands for PPAR” (Bethesda Pharmaceuticals, Inc., priority 2003, dated 2008).

What was measured:
PPARgamma = target: T1, PPARgamma (Homo sapiens, UniProt P37231); test: cell based transactivation assay, PPARgamma; conditions: activation, transactivation assay in vitro; read-out: EC50 for PPAR isoforms: PPARgamma
T1 construct: uses chimeric receptors where the PPAR LBD is fused to the DBD of the yeast transcription factor GAL4; expressed in transfected cells
T1 sequence (P37231 238-503 limits assumed): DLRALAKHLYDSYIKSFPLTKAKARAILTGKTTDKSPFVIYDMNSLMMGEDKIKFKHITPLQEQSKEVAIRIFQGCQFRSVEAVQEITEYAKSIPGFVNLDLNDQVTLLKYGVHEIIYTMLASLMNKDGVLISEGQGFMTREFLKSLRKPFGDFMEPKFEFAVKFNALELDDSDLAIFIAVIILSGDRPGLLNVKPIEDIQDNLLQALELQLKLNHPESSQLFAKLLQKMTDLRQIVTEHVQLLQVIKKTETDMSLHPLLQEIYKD
Experimental: (§1) The binding of agonist ligands to the receptor results in changes in the expression level of mRNAs encoded by PPAR target genes. This process, “transactivation”, is determined by cell-based assays which monitor this functional activity. Transactivation assays use cells that have been transfected with a vector expressing the receptor as well as a second vector containing a DNA direct repeat (DR-1) response element and a reporter gene, which encodes an enzyme such as chloramphenicol acetyltransferase, secreted placental alkaline phosphatase, or firefly luciferase. […]
(§2) The binding of agonist ligands to a nuclear receptor results in transactivation, i.e., changes in the expression level of mRNAs encoded by PPAR target genes. […] Activation of the receptor by agonist ligands leads to induction of reporter enzyme expression, which can be conveniently assayed using standard colorimetric or photometric plate readers. […]

PPARdelta = target: T2, PPARdelta (Homo sapiens, UniProt Q03181); test: cell based transactivation assay, PPARdelta; conditions: activation, transactivation assay in vitro; read-out: EC50 for PPAR isoforms: PPARdelta
T2 construct: uses chimeric receptors where the PPAR LBD is fused to the DBD of the yeast transcription factor GAL4; expressed in transfected cells
T2 sequence (Q03181 211-439 limits assumed): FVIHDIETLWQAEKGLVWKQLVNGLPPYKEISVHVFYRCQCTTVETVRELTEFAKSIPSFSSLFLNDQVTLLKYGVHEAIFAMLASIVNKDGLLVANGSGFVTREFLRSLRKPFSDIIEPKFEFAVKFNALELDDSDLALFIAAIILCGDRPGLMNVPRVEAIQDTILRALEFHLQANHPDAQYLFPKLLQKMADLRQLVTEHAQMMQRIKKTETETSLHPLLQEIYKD
Experimental: as §1, §2

PPARalpha = target: T3, PPARalpha (Homo sapiens, UniProt Q07869); test: cell based transactivation assay, PPARalpha; conditions: activation, transactivation assay in vitro; read-out: EC50 for PPAR isoforms: PPARalpha
T3 construct: uses chimeric receptors where the PPAR LBD is fused to the DBD of the yeast transcription factor GAL4; expressed in transfected cells
T3 sequence (Q07869 239-466 limits assumed): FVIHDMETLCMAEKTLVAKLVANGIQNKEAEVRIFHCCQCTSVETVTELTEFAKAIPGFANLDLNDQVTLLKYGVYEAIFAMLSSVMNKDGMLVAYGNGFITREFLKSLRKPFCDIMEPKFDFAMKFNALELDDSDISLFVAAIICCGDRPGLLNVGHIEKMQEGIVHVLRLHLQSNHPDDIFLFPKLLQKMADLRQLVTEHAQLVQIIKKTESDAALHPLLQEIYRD
Experimental: as §1, §2

[1] = test system: human psoriasis skin engrafted onto severe combined immunodeficient (SCID) mice; test: SCID mouse, human skin transplant model of psoriasis; type: in vivo
Description: Background: Human psoriasis skin engrafted onto severe combined immunodeficient (SCID) mice maintains its abnormal histologic characteristics in the absence of any treatment. Treatment of this SCID mouse, human skin transplant model of psoriasis with anti-psoriatic drugs will improve the histologic phenotype of the transplanted psoriatic skin. Thus, the SCID mouse with transplanted human psoriatic skin represents a useful model of psoriasis and can be used to test the therapeutic effects of antipsoriatic drugs (as described in the following references: 1) Nickoloff B J, Kunkel S L, Burdick […]. Severe combined immunodeficiency mouse and human psoriatic skin chimeras. Validation of a new animal model. Am J Pathol. 1995; 146:580-588. […] Archives of Dermatology 136:609-616, 2000). Methods: Keratome pieces of lesional psoriasis skin were transplanted onto immunodeficient mice (such as CB17 strain) as previously described (Nickoloff B J, Kunkel S L, Burdick […]. Am J Pathol. 1995; 146:580-588. Ellis […], Fisher […], Benson S C, Kurtz T W. Archives of Dermatology. 136:609-616, 2000). The transplanted tissue was allowed to heal for four weeks after which six animals were treated once daily for 4-8 weeks by topical application of BP107 to the psoriatic skin in concentrations sufficient to exert an antipsoriatic effect (concentrations ranging from 0.1 micromolar to 10 millimolar in appropriate amounts of vehicle such as DMSO, propylene glycol, or other vehicles familiar to those skilled in the art). At the end of the treatment period, the animals were sacrificed, tissue pieces were fixed in 10% buffered formalin, embedded in paraffin, sectioned, stained with hematoxylin and eosin, and evaluated histologically using techniques familiar to those skilled in the art. Animals topically treated with the corresponding vehicle without any BP107 were used as controls.

[2] = topical, once daily for 4-8 weeks, histology

CN(CCOc1ccc(CC2SC(=O)NC2=O)cc1)C(=O)CCCCC1C2CC3CC(C2)CC1C3 (stereo not drawn) [BP 107, 5-Adamantan-2-yl-pentanoic acid {2-[4-(2,4-dioxo-thiazolidin-5-ylmethyl)-phenoxy]-ethyl}-methyl-amide]
EC50 (PPARgamma): < 0.001 µM | EC50 (PPARdelta): > 10 µM | EC50 (PPARalpha): > 10 µM | antipsoriatic effect compared to animals treated with troglitazone or rosiglitazone ([1]; topical BP107 vs weaker PPAR gamma activators): much better | granular layer [1, 2]: present in much of the epidermis | inflammatory response [1, 2]: reduced | pattern of epidermal differentiation [1, 2]: more normal pattern | overall skin thickness ([1]; topical, once daily for 4-8 weeks, histology, vs vehicle controls): reduced | anti-psoriatic effect compared to control animals ([1]; topical, once daily for 4-8 weeks, controls treated with vehicle): clearly evident
